Reference: patent publication US6518317B1, “Antiviral agents” (priority 1997, dated 2003)

Key:
[1] = tested on: H9 cells infected by HIV-1IIIB (H9-3B); assay: Survival rate of HIV-infected T cells, H9-3B; type: cell-based, human; conditions: three days
Experimental: (§1) The cyclopentenone (1-5 μM) was added to CEM-SS cells infected by HIV-1IIIB (abbreviated as CEM-3B) or to H9 cells infected by HIV-1IIIB (abbreviated as H9-3B) and incubated for three days. In both cells, 90% or more of the cells were infected by HIV-1IIIB. Numbers of living and dead cells were counted and the survival rate of the cells was calculated therefrom.
Thus, FIG. 3 and FIG. 4 are the graphs showing the relation between the concentration of the cyclopentenone added and the survival rate of the cells in which abscissa is the concentration (μM) of the cyclopentenone added While ordinate is the survival rate (%) of the cells after incubating for three days. FIG. 3 is the result when CEM-3B were used while FIG. 4 is the result when H9-3B were used.

NIH3T3/Y-1 = assay: Colony formation of control-vector cell strain NIH3T3/Y-1; conditions: 5 μM, nine days, NIH3T3/Y-1, three runs
HIV-1IIIB = assay: p24 antigen in supernatant liquid of H9-3B culture; type: cell-based; conditions: three days
Experimental: as §1
Concentration of the p24 antigen contained in the supernatant liquid of the culture after incubation for three days in the case of Example 5-(2) was measured. The result was that the concentration of p24 decreased corresponding to the centration of the cyclopentenone added thereto whereupon the anti-HIV action was noted. In Table 10, the figures in parentheses are the ratio of each of the supernatant liquid of the cell cultures (when none of the cyclopentenone was added) to the concentration of p24 expressed in terms of %.

[2] = tested on: heat shock protein of 70 kDa; assay: Induction of heat shock protein of 70 kDa in HL-60 cells (SDS-PAGE and blotting); type: cell-based, human; parameters: key to Induction of Heat Shock Proteins: +++: “+” indicates degree of intensity of induction and the more the numbers of “+”, the more the intensity of induction; ++: “+” indicates degree of intensity of induction and the more the numbers of “+”, the more the intensity of induction; “+” indicates degree of intensity of induction and the more the numbers of “+”, the more the intensity of induction; “±” means the induction was slight; “−” means that no induction was noted; conditions: for Induction of Heat Shock Proteins: HL-60 cells, eight hours
Experimental: (1) An RPMI 1640 medium (5 ml) containing 10% of fetal bovine serum which contained 2×10^5 cells/ml of human promyelocytic leukemia cells HL-60 (ATCC CCL-240) was placed in each well of a six-well plate, incubated at 37° C. for 24 hours in the presence of 5% of CO2, then the cyclopentenone described in the referential example L was added thereto to make its final concentration 0, 10, 20, 30, 40, 50, or 100 μM and the incubation was further continued for eight hours more.
After completion of the incubation, cell numbers were counted and the cells were recovered by centrifugation and washed with phosphate-buffered saline (PBS) to prepare cyclopentenone-treated cells. In the meanwhile, cells which were heated at 45° C. for ten minutes followed by subjecting to the same incubation were prepared as well.
The cells treated as such were subjected to an SDS-polyacrylamid gel electrophoresis (SDS-PAGE) by a method mentioned in “Molecular Cloning” [Cold Spring Harbor Laboratory Press, (1989)]. The treated cells were suspended in an SDS-PAGE sample buffer to make the concentration 2.5×10^6 cells/ml, the resulting cell suspension was treated at 100° C. for ten minutes and each 5 μl thereof was applied to two sheets of SDS-PAGE gels (5% stacking gel; 10% separation gel) to conduct anelectrophoresis. One of the gels was Coomassie stained while another gel was subjected to a blotting to a polyvinylidene difluoride transfer membrane (Immobilon™, manufactured by Millipore, catalog no. IPVH000-10). The membrane was subjected to a blocking at 4° C. for one night with Block Ace (manufactured by Dainippon Pharmaceutical; catalog no. UK-B25).
The blocked membrane was made to react with monoclonal antibody HSP 72/73 (Ab-1) (manufactured by Oncogene Research Products, catalog no. HSP01) which would specifically react with heat-induced heat shock protein of 70 kDa and washed with TBS containing 0.05% of Tween 20 followed by further washing with TBS. After that, it was made to react with peroxidase-compounded secondary antibody HRP-Rabbit Anti-Mouse IgG (H+L) (manufactured by Zymed Laboratories, catalog no. 61-6520) and washed by the same manner as in the above operation. The membranes which were treated with primary and secondary antibodies as such were made to react with Renaissance™ (a chemiluminor reagent manufactured by Dupont NEN, catalog no. NEL-100) and photosensitized with an X-ray film to confirm the induction of heat shock protein of 70 kDa.
The result was that, by addition of cyclopentenone (20 to 30 μM), induction of heat shock protein of 70 kDa which is almost same as heat-treated at 45° C. for 10 minutes was confirmed. In Table 1, “+” indicates degree of intensity of induction and the more the numbers of “+”, the more the intensity of induction. Incidentally, “−” means that no induction was noted and “±” means the induction was slight.

CEM-SS cells = assay: Survival rate of human T cells, CEM-SS; type: cell-based; conditions: 0.5-5 m M, three days
NIH3T3 cells = assay: Colony formation of NIH3T3 cells; conditions: 5 μM, nine days, NIH3T3, three runs
Ad5 dlX [an adenovirus] = assay: Adenovirus hexon protein in HeLa cells treated with cyclopentenone before infection; type: cell-based; conditions: 10 μM or higher, six hours before infection, m.o.i. 50, 20 hours
Experimental: After that, the cells were washed with the DMEM containing 5% of fetal bovine serum, then the DMEM containing 5% of fetal bovine serum which contained Ad5 dlX [an adenovirus; Saito, etal.; Journal ofVirology, volume 54, pages 711-719 (1985)] was added to the cells so that the cells were infected therewith and incubation was conducted for 20 hours. […] The medium was discarded, 1 ml of 10% trichloroacetic acid was added to each of the wells and the cells were recovered by a scraper.
Then SDS-PAGE and blotting of the treated cells obtained hereinabove were conducted by the method of Example 1 to detect the expression of hexon proteins of the adenovirus. Incidentally, anti-adenovirus hexon antibody (AB 1056; manufactured by Chemicon International Inc.) was used as the primary antibody.

Question: With `O=C1C=CC(O)C1O` (stereo not drawn) [cyclopentenone, 4,5-dihydroxy-2-cyclopenten-1-one] as the compound, how does the “survival rate of the cells” value ([1]; 3 μM) read?
Answer: The value was “significantly decreased”.

Question: What about the “survival rate of the cells” value ([1]; 5 μM) of the same compound?
Answer: The value was “further decreased”.

Question: What about the “Numbers (average ± SD) of the Colonies” value (NIH3T3/Y-1) of the same compound?
Answer: The value was 71.3 ± 2.3.

Question: And the “Concentration of p24 in Supernatant Liquid of the cell cultures” value (“Concentration of p24 … of the cell cultures” for short) (HIV-1IIIB; 1 μM)?
Answer: The value was 203 ng/mL.

Question: What about the “ratio to the concentration of p24 when none of the cyclopentenone was added” value (“ratio to the concentration of p24” below) (HIV-1IIIB; 1 μM) of the same compound?
Answer: Its value is 97%.

Question: And the “Concentration of p24 … of the cell cultures” value (HIV-1IIIB; 3 μM)?
Answer: Its value is 157 ng/mL.

Question: And the “ratio to the concentration of p24” value (HIV-1IIIB; 3 μM)?
Answer: Its value is 75%.

Question: What about the “Concentration of p24 … of the cell cultures” value (HIV-1IIIB; 5 μM) of the same compound?
Answer: The value was 148 ng/mL.

Question: What about the “ratio to the concentration of p24” value (HIV-1IIIB; 5 μM) of the same compound?
Answer: Its value is 70%.

Question: And the “concentration at which the ability for inducing HSP70 becomes maximum” value [2]?
Answer: Its value is 20 to 30 µM.

Question: And the “concentration at which the ability for inducing HSP70 is noted” value [2]?
Answer: Its value is 10 µM.

Question: And the “Induction of Heat Shock Proteins” value ([2]; 10 μM)?
Answer: Its value is “+”.

Question: What about the “Induction of Heat Shock Proteins” value ([2]; 20 μM) of the same compound?
Answer: The value was “+++”.

Question: And the “Induction of Heat Shock Proteins” value ([2]; 30 μM)?
Answer: The value was “+++”.

Question: What about the “Induction of Heat Shock Proteins” value ([2]; 40 μM) of the same compound?
Answer: Its value is “++”.

Question: And the “Induction of Heat Shock Proteins” value ([2]; 50 μM)?
Answer: The value was “+”.

Question: What about the “Induction of Heat Shock Proteins” value ([2]; 100 μM) of the same compound?
Answer: The value was “±”.

Question: What about the “ability inducing the HSP70 compared with prostaglandin A1” value ([2]; compared in molar concentration) of the same compound?
Answer: The value was “equivalent”.

Question: And the “survival rate of the cells” value (CEM-SS cells)?
Answer: Its value is “no significant decrease”.

Question: What about the “Numbers (average ± SD) of the Colonies” value (NIH3T3 cells) of the same compound?
Answer: The value was 85.3 ± 4.0.

Question: And the “amount of the hexon protein compared with the control” value (Ad5 dlX [an adenovirus])?
Answer: Its value is “apparently decreased”.
